“Also recorded” adds a separate entry of the source.
Columns and labels:
[1] = tested on: Staphylococcus aureus bacteremia (SAB); assay: Phase 3 study of ceftobiprole vs daptomycin ± aztreonam in complicated SAB (NCT03138733): efficacy; format: in vivo, human; conditions: for DRC-assessed SAB relapses: 4 patients on daptomycin (2 MSSA, 2 MRSA), 2 patients on ceftobiprole (all MSSA); for Overall success rate in patients with high vancomycin MICs of 2-8 mg/L: 16 patients (8 MRSA, 8 MSSA), 7/8 vs 4/8; for Adjusted difference ceftobiprole − daptomycin ± aztreonam (95% CI): DRC overall success at PTE (mITT): Cochran-Mantel-Haenszel weights, adjusted for dialysis status and prior antibacterial treatment use; for Non-inferiority for overall success at PTE (70 days post-randomization): pre-specified −15% non-inferiority margin
[2] = prolonged (>4 weeks) ceftobiprole treatment; cited from earlier work
[3] = tested on: MRSA; assay: MIC of baseline blood S. aureus isolates: MRSA; format: cell-based, Staphylococcus aureus; conditions: MRSA samples
From the text: (§1) The distribution of ceftobiprole, daptomycin, and aztreonam MICs, including MIC50, MIC90, and MIC range, for blood S. aureus, MRSA, and MSSA, was tabulated for the mITT and CE populations. The shifts in ceftobiprole, daptomycin, and aztreonam MIC results from baseline to PTE, and the shifts in ceftobiprole, daptomycin, and aztreonam MIC results from baseline to the maximum value post-baseline by baseline infecting organisms (i.e., pathogens), were presented overall and by geographical region in the mITT and CE populations.

[4] = tested on: MSSA; assay: MIC of baseline blood S. aureus isolates: MSSA; format: cell-based, Staphylococcus aureus; conditions: MSSA samples
From the text: as §1

[5] = tested on: S. aureus; assay: On-treatment MIC shifts and MIC vs clinical failure, blood S. aureus; format: cell-based, Staphylococcus aureus; conditions: MIC of the drug received, daptomycin: three patients (two MSSA, one MRSA)
From the text: as §1

[6] = format: in vivo
Protocol: Safety population: The safety population consisted of all randomized patients who received any amount/dose of study medication. Patients in the safety population were analyzed according to the first medication actually received.
Ceftohiprole 500 mg (as 667 mg ceftobiprole medocaril) was administered as a 2-hour intravenous (i.v.) infusion every 6 hours in the first 8 days, and every 8 hours from Day 9 onwards (with dose and/or schedule adjusted in patients with renal impairment). Daptomycin weight-based at 6 mg/kg (up to 10 mg/kg in accordance with institutional standards) administered as 0.5-hour i.v. infusion every 24 hours (with schedule adjusted in patients with renal impairment). Optional aztreonam 1000 mg fixed dose administered as 0.5-hour i.v. infusion every 24 hours (with dose adjusted in patients with renal impairment). The target treatment duration in Part I was 21-28 days of study medication, with a maximum treatment duration of 28 days. The maximum treatment duration In Part 2 was 42 days.
• 1. All-cause mortality assessed at Day 70 (PTE visit) in the mITT population. • 2. Microbiological cradication assessed by the DRC at Day 70 (PTE visit) in the mITT population. • 3. The overall success rate in the ITT, mITT, and CE populations; • a) at the BOT and PTE (ITT and CE populations only) visits • b) at the EOT and PTE visits, for RIE vs non-IE SAB • c) at the EOT and PTE visits, by renal-function status • 4. Development of new metastatic foci or other complications of SAB after Day 7 assessed in the mITT and CE populations. • 5. Time to S. aureus bloodstream clearance, defined as the elapsed time (days) from randomization to bloodstream clearance, with bloodstream clearance defined as the occurrence of two consecutive study days with blood-culture-negative assessments for S. aureus. • 6. Safety and tolerability based on incidence, type, severity, and relationship to study medication of AEs; and changes in laboratory tests • 7. Pharmacokinetics of ceftobiprole in the PK population

[7] = tested on: acute bacterial skin and soft tissue infections; conditions: TARGET Phase 3; Overcash et al.; cited from earlier work
[8] = mITT, Cochran-Mantel-Haenszel adjusted
[9] = mITT, Cochran-Mantel-Haenszel adjusted, listed as ceftobiprole
[10] = mITT, S. aureus (overall), bloodstream clearance = two consecutive study days with negative blood culture

For `Nc1nc(/C(=N/O)C(=O)N[C@@H]2C(=O)N3C(C(=O)O)=C(/C=C4\CCN([C@@H]5CCNC5)C4=O)CS[C@H]23)ns1` [Ceftobiprole], which “DRC-assessed SAB relapses” value [1] is on record?
Its value is 1.1%.

And the “Overall success rate in patients with high vancomycin MICs of 2-8 mg/L” value [1]?
Its value is 87.5%.

What about the “Adjusted difference ceftobiprole − daptomycin ± aztreonam (95% CI): DRC overall success at PTE (CE)” value ([1]; CE, Cochran-Mantel-Haenszel adjusted) of the same compound?
The value was 0.6% (−8.3. 9.5).

And the “Overall success at the PTE visits, patients with MRSA of USA clonal strain type” value ([1]; MRSA isolates typed by MLST, spa and SCCmec, 16/21 vs 16/23)?
The value was 76.2%.

And the “Investigator-assessed overall success at the PTE visit” value ([1]; mITT)?
The value was 73.5%.

And the “Patients who died through the PTE visit” value ([1]; mITT)?
The value was 9.0%.

What about the “Patients who experienced new metastatic foci or other complications of SAB after Day 7” value ([1]; mITT) of the same compound?
Its value is 5.8%.

What about the “Patients with microbiological eradication at the PTE visit” value ([1]; mITT) of the same compound?
The value was 82.0%.

What about the “Adjusted proportion difference: investigator-assessed overall success at PTE” value ([1]; mITT, 95% CI: −4.2, 13.5) of the same compound?
The value was 4.7%.

What about the “Responders (overall success at the PTE visit)” value ([1]; mITT, 70 days post-randomization) of the same compound?
Its value is 69.8%.

What about the “Adjusted difference ceftobiprole − daptomycin ± aztreonam (95% CI): ACM through PTE” value [1, 8] of the same compound?
Its value is −0.5% (−6.2, 5.2).

And the “Adjusted difference ceftobiprole − daptomycin ± aztreonam (95% CI): death due to SAB (DRC)” value [1, 8]?
The value was 0.4% (−3.2, 4.0).

What about the “Adjusted difference ceftobiprole − daptomycin ± aztreonam (95% CI): microbiological response at PTE” value [1, 8] of the same compound?
Its value is 5.1% (−2.9, 13.0).

And the “Adjusted difference ceftobiprole − daptomycin ± aztreonam (95% CI): new metastatic foci or other complications of SAB after Day 7” value [1, 8]?
The value was 0.1% (−4.6, 4.8).

What about the “Adjusted difference ceftobiprole − daptomycin ± aztreonam (95% CI): ACM through PTE” value [1, 9] of the same compound?
Its value is −0.5%.

And the “Adjusted difference ceftobiprole − daptomycin ± aztreonam (95% CI): microbiological response at PTE” value [1, 9]?
Its value is 5.1%.

And the “Adjusted difference ceftobiprole − daptomycin ± aztreonam (95% CI): new metastatic foci or other complications of SAB after Day 7” value [1, 9]?
Its value is 0.1%.

And the “Adjusted difference ceftobiprole − daptomycin ± aztreonam (95% CI): DRC overall success at PTE (mITT)” value ([1]; mITT)?
Its value is 2.0% (−7.1, 11.1).

And the “Adjusted difference ceftobiprole − daptomycin ± aztreonam (95% CI): DRC overall success at PTE (mITT)” value ([1]; mITT, listed as ceftobiprole)?
Its value is 2.0%.

And the “Median time (days) clearance (95% CI)” value ([1]; mITT, MRSA)?
The value was 5 days.

What about the “Patients with clearance achieved” value ([1]; mITT, MRSA) of the same compound?
Its value is 93.3%.

And the “Median time (days) clearance (95% CI)” value ([1]; mITT, MSSA)?
Its value is 3 days.

And the “Patients with clearance achieved” value ([1]; mITT, MSSA)?
Its value is 94.3%.

And the “Median time (days) clearance (95% CI)” value ([1]; mITT, S. aureus (overall))?
The value was 4 days.

What about the “Patients with clearance achieved” value [1, 10] of the same compound?
Its value is 94.2%.

And the “Time (days) to S. aureus bloodstream clearance, Median (95% CI)” value ([1]; mITT, Table 1)?
The value was 4 (3, 5) days.

And the “Non-inferiority for overall success at PTE (70 days post-randomization)” value ([1]; mITT)?
The value was “non-inferiority of ceftobiprole”.

And the “Non-inferiority for overall success at PTE (70 days post-randomization)” value ([1]; mITT, listed as ceftobiprole)?
The value was “non-inferiority of ceftobiprole to daptomycin±aztreonam; also recorded: non-inferior to daptomycin”.

And the “Response rate (primary endpoint), non-white patients” value ([1]; subgroup analysis, 5/10 vs 5/6)?
Its value is 50.0%.

And the “Response rate (primary endpoint), age group of 18-34 years” value ([1]; subgroup analysis, 17/20 vs 11/19)?
The value was 85.0%.

What about the Risk of convulsions [2] of the same compound?
The Risk of convulsions was “potential for an increased risk of convulsions”.

What about the “Isolates at MIC 0.5 mg/L” value [3] of the same compound?
Its value is 14%.

And the “Isolates at MIC 1 mg/L” value [3]?
Its value is 58%.

And the “Isolates at MIC 2 mg/L” value [3]?
Its value is 28%.

What about the “Isolates at MIC 0.25 mg/L” value [4] of the same compound?
The value was 51%.

And the “Isolates at MIC 0.5 mg/L” value [4]?
Its value is 48%.

What about the “Isolates at MIC either 0.25 mg/L or 0.5 mg/L” value [4] of the same compound?
The value was 99%.

What about the “On-treatment increases in MICs by ≥four-fold, patients” value ([5]; listed as cefobiprole) of the same compound?
The value was “No on-treatment increases”.

And the “AE anemia, patients” value ([6]; human, in vivo)?
Its value is 11.0%.

And the “AE gamma-glutamyl-transferase increased, patients” value ([6]; human, in vivo)?
The value was 6.3%.

And the “AE nausea, patients” value ([6]; human, in vivo)?
Its value is 10.5%.

And the “Adverse events leading to discontinuation” value ([6]; human, in vivo)?
Its value is 9.4%.

And the “Drug-related AEs leading to discontinuation” value ([6]; human, in vivo)?
Its value is 4.7%.

What about the “Drug-related AEs leading to discontinuation: allergy-type events” value ([6]; human, in vivo) of the same compound?
The value was 4 n.

And the “Drug-related AEs leading to discontinuation: hepatic function test abnormalities” value ([6]; human, in vivo)?
Its value is 1 n.

And the “Drug-related AEs leading to discontinuation: leukopenia” value ([6]; human, in vivo)?
The value was 1 n.

And the “Drug-related AEs leading to discontinuation: nausea/vomiting” value ([6]; human, in vivo)?
The value was 4 n.

And the “Drug-related AEs leading to discontinuation: seizure” value ([6]; human, in vivo)?
Its value is 1 n.

What about the “Patients who experienced a serious adverse event (SAE)” value ([6]; human, in vivo) of the same compound?
The value was 18,8%.

And the “Patients who experienced a severe AE” value ([6]; human, in vivo)?
The value was 15.2%.

What about the “Patients who experienced an AE” value ([6]; human, in vivo) of the same compound?
Its value is 63.4%.

And the “Study treatment discontinuation, reason non-related AE” value ([6]; human, in vivo)?
Its value is 3.2%.

And the “Study treatment discontinuation, reason related AE” value ([6]; human, in vivo)?
The value was 4.8%.

And the “Study-drug-related AEs” value ([6]; human, in vivo)?
Its value is 13.1%.

What about the “Study discontinuation, reason death” value ([6]; mITT population) of the same compound?
Its value is 9.0%.

What about the “Study treatment discontinuation, reason death” value ([6]; mITT population) of the same compound?
The value was 4.8%.

And the “Early clinical response and investigator-assessed clinical success vs vancomycin and aztreonam” value [7]?
Its value is “non-inferior to vancomycin and aztreonam”.

For `CCCCCCCCCC(=O)N[C@@H](Cc1c[nH]c2ccccc12)C(=O)N[C@H](CC(N)=O)C(=O)N[C@@H](CC(=O)O)C(=O)N[C@@H]1C(=O)NCC(=O)N[C@@H](CCCN)C(=O)N[C@@H](CC(=O)O)C(=O)N[C@H](C)C(=O)N[C@@H](CC(=O)O)C(=O)NCC(=O)N[C@H](CO)C(=O)N[C@@H]([C@H](C)CC(=O)O)C(=O)N[C@@H](CC(=O)c2ccccc2N)C(=O)O[C@@H]1C` [Daptomycin, reference compound], which “DRC-assessed SAB relapses” value [1] is on record?
Its value is 3.0%.

What about the “Overall success rate in patients with high vancomycin MICs of 2-8 mg/L” value [1] of the same compound?
The value was 50.0%.

And the “Median time (days) clearance (95% CI)” value ([1]; mITT, MRSA)?
Its value is 5 days.

What about the “Patients with clearance achieved” value ([1]; mITT, MRSA) of the same compound?
The value was 87.8%.

And the “Median time (days) clearance (95% CI)” value ([1]; mITT, MSSA)?
The value was 4 days.

What about the “Patients with clearance achieved” value ([1]; mITT, MSSA) of the same compound?
Its value is 95.2%.

And the “Median time (days) clearance (95% CI)” value ([1]; mITT, S. aureus (overall))?
The value was 4 days.

And the “Patients with clearance achieved” value [1, 10]?
Its value is 92.9%.

And the “Isolates at MIC 0.25 mg/L” value [3]?
The value was 22%.

What about the “Isolates at MIC 0.5 mg/L” value [3] of the same compound?
Its value is 76%.

And the “Isolates at MIC 1 mg/L” value [3]?
The value was 2%.

What about the “Isolates at MIC 0.25 mg/L” value [4] of the same compound?
The value was 28%.

And the “Isolates at MIC 0.5 mg/L” value [4]?
Its value is 71%.

And the “Isolates at MIC either 0.25 mg/L or 0.5 mg/L” value [4]?
The value was 99%.

And the “On-treatment increases in MICs by ≥four-fold, patients” value [5]?
The value was 1.5%.

And the “Drug-related AEs leading to discontinuation: cosinophilic pneumonia” value ([6]; Safety population)?
Its value is 2 n.

What about the “Drug-related AEs leading to discontinuation: myopathy” value ([6]; Safety population) of the same compound?
Its value is 1 n.

And the “Tolerability / safety in patients with complicated SAB” value ([6]; in vivo)?
The value was “well tolerated”.
